Assay results reported in ChEMBL document CHEMBL1201862, “PubChem BioAssay data set” (2004).
Calls of active or inactive are those of the source.

Legend:
Cytochrome P450 3A4 = Cytochrome P450 3A4 (Homo sapiens, UniProt P08684); details: Potency;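 also: confirmatory qHTS run detecting inhibitors and substrates of CYP3A4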
[1] = biological target: DNA dC->dU-editing enzyme APOBEC-3G (Homo sapiens, UniProt Q9HC16); type: functional;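 also: Dose-response counterscreen measuring inhibition of APOBEC3G DNA deaminase activity, run while confirming APOBEC3A inhibitors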
Sequence of DNA dC->dU-editing enzyme APOBEC-3G (Q9HC16 whole entry): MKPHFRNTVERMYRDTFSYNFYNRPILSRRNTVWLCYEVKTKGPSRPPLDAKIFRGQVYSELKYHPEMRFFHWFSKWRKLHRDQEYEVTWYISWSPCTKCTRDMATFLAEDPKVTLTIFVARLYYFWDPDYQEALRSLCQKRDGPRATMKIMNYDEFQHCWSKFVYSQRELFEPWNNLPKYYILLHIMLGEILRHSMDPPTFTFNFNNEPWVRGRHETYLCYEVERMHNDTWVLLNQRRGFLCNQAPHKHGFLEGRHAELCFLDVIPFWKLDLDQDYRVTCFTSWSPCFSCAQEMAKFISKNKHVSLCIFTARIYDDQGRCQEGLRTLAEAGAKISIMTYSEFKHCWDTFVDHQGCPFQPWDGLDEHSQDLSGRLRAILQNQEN

[2] = biological target: DNA dC->dU-editing enzyme APOBEC-3A (Homo sapiens, UniProt P31941); experiment: Dose Response confirmation of small molecule APOBEC3A DNA Deaminase Inhibitors via a fluorescence-based single-stranded DNA deaminase assay. [Related pubchem assays (depositor defined):AID493011, AID493024]; type: functional
Sequence of DNA dC->dU-editing enzyme APOBEC-3A (P31941 whole entry, the tested form may be a part): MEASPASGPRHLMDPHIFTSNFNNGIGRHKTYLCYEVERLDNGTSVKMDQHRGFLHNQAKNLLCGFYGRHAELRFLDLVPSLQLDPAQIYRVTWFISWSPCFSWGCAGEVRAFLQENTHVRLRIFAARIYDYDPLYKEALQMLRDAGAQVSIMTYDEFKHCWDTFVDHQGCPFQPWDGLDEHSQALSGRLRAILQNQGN

[3] = biological target: T1, Nucleotide-binding oligomerization domain-containing protein 1 (Homo sapiens, UniProt Q9Y239); experiment: blockers of NOD1 pathway activity – revised, SAR follow-up (AID 2333); type: functional
T1 sequence (Q9Y239 whole entry): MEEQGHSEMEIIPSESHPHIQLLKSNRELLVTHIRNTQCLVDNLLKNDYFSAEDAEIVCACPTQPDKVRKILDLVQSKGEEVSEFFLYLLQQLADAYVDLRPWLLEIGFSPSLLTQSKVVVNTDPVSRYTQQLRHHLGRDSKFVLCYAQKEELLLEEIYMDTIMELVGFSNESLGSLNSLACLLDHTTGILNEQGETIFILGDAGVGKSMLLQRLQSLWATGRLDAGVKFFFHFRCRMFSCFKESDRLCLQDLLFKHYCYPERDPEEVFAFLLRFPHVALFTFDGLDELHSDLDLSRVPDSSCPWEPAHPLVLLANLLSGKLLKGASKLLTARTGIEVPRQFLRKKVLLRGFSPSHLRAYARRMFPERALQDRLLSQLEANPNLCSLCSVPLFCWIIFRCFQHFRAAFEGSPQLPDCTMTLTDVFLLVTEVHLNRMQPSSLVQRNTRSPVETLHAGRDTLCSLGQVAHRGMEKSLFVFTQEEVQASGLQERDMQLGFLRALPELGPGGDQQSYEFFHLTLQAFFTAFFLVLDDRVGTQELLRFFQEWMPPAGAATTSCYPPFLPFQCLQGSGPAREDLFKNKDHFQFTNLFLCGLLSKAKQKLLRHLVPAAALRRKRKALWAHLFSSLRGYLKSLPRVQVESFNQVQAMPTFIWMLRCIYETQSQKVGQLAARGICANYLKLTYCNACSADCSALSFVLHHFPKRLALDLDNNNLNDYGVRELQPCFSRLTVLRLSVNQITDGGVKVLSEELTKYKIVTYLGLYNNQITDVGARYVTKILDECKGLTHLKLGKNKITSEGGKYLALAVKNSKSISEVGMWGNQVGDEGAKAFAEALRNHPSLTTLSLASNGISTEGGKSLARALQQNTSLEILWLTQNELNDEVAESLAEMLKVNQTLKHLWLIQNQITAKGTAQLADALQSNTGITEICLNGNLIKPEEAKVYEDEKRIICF

HEK293 [4] = experiment: cells; type: functional, cell-based; details: Homo sapiens
Tumor necrosis factor = Tumor necrosis factor (Homo sapiens, UniProt P01375); experiment: analog potency on TNFa NF-kB signaling – cell-based, revised, SAR follow-up (AID 2337); type: functional
Sequence of Tumor necrosis factor (P01375 whole entry): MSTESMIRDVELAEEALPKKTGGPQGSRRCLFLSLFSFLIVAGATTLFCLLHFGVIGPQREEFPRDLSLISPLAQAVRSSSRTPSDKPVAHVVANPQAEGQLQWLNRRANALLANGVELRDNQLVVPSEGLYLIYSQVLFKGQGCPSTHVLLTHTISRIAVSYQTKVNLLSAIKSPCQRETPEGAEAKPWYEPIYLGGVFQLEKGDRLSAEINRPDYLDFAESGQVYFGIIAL

HEK293 [5] = experiment: inhibition of NOD1-driven NF-kB reporter – cell-based, luminescence, uHTS, primary screen (AID 1578); type: functional; details: Homo sapiens
HEK293 [6] = experiment: NOD2 signaling inhibitors in MDP-stimulated cells, cell-based, uHTS, luminescence (AID 2001); type: functional; details: Homo sapiens
HEK293 [7] = experiment: cells; details: Homo sapiens
HEK293 [8] = experiment: cells; type: functional, cell-based; details: Homo sapiens; remark: listed apart in the source
[9] = biological target: T2, High affinity choline transporter 1 (Homo sapiens, UniProt Q9GZV3); experiment: human choline transporter blockers, potency – cell-based, 5-point CRC, membrane potential dye, dose response (AID 504840); type: functional
T2 sequence (Q9GZV3 whole entry): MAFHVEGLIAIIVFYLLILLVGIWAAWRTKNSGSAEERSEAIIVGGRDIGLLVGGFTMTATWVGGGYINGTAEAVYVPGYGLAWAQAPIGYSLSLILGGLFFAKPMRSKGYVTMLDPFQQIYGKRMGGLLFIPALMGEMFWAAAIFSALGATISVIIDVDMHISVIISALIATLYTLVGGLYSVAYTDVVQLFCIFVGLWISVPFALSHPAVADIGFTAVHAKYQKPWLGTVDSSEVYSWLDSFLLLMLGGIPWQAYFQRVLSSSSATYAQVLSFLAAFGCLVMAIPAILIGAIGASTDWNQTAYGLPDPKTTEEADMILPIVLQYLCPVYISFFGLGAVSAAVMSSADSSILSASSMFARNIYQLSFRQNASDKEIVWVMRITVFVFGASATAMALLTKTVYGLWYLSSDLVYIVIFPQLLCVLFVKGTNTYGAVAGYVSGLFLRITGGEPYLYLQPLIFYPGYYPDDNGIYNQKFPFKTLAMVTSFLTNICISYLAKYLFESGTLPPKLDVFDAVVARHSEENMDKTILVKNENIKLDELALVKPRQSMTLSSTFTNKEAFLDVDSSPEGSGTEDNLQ

[10] = biological target: 26S proteasome non-ATPase regulatory subunit 14 (Homo sapiens, UniProt O00487); experiment: inhibition of proteasome subunit RPN11 – biochemical, fluorescence polarization, uHTS hits, confirmation (AID 602368); type: functional
Sequence of 26S proteasome non-ATPase regulatory subunit 14 (O00487 whole entry): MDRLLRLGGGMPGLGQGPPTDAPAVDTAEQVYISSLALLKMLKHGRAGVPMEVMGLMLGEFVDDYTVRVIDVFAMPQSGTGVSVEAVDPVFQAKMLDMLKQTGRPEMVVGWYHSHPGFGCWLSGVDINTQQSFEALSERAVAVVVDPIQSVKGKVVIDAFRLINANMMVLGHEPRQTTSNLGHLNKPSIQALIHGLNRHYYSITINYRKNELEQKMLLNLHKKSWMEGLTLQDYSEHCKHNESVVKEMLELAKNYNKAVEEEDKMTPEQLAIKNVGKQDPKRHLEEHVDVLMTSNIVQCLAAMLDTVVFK

Prothrombin = Prothrombin (Bos taurus, UniProt P00735); experiment: thrombin protease inhibitors – biochemical, fluorescence polarization, uHTS hits, dose response (AID 602369); type: functional
[11] = biological target: 72 kDa type IV collagenase (Homo sapiens, UniProt P08253); experiment: Dose Response validation of uHTS RPN11 inhibitor hits using a MMP-2 Fluorescence assay.; type: functional
Sequence of 72 kDa type IV collagenase (P08253 whole entry): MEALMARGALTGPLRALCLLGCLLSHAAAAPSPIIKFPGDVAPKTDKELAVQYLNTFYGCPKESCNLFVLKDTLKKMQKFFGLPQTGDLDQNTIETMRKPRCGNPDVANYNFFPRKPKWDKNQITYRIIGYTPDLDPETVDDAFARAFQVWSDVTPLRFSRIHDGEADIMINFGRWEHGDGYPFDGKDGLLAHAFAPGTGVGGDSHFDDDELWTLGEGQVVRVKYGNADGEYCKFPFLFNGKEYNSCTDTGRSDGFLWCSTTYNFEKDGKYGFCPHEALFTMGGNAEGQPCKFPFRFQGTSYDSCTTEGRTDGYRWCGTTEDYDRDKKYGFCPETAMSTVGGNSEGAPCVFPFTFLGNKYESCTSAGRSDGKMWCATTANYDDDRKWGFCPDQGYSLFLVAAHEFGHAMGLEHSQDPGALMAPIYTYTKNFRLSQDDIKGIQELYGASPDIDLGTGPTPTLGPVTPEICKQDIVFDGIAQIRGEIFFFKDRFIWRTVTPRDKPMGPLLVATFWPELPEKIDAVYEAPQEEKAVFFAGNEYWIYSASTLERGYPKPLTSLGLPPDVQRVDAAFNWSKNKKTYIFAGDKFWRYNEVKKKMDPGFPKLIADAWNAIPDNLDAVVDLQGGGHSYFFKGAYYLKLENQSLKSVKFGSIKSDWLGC

[12] = biological target: T3, Short transient receptor potential channel 4 (Mus musculus, UniProt Q9QUQ5); experiment: calcium entry via TRPC4 opening agents – cell-based, HEK293 TRPC4/mu-opioid, Fluo-4 calcium, dose response (AID 434937); type: functional
T3 sequence (Q9QUQ5 whole entry): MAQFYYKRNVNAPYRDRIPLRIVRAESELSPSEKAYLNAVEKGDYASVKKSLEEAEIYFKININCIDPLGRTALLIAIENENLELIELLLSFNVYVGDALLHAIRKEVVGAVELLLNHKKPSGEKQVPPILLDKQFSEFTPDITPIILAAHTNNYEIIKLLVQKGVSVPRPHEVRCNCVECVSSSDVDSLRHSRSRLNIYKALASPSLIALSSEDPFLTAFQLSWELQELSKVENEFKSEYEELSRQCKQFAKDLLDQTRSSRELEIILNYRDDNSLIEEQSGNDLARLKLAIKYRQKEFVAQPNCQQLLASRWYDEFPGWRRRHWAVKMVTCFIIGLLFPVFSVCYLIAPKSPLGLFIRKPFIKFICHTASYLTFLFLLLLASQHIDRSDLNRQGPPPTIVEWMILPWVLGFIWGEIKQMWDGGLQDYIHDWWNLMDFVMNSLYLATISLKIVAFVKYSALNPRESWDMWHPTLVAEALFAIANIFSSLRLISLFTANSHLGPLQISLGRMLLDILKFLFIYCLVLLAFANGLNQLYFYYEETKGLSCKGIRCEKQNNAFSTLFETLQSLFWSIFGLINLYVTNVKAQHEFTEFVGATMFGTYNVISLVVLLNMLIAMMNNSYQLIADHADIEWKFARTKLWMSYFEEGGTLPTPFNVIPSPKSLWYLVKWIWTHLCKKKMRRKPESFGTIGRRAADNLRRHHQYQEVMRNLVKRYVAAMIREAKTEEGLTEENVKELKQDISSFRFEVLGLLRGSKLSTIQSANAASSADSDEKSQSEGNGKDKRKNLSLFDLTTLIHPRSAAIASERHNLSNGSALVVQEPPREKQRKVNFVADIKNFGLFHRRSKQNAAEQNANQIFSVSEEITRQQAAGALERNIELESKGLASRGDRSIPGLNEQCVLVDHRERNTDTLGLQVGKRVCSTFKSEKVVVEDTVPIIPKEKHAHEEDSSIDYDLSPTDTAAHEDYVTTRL

[13] = biological target: Peroxisome proliferator-activated receptor gamma/Nuclear receptor coactivator 3 (Homo sapiens, UniProt P37231); type: functional;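 also: agonist potency for raising coactivator recruitment to the receptor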
Sequence of Peroxisome proliferator-activated receptor gamma/Nuclear receptor coactivator 3 (P37231 whole entry): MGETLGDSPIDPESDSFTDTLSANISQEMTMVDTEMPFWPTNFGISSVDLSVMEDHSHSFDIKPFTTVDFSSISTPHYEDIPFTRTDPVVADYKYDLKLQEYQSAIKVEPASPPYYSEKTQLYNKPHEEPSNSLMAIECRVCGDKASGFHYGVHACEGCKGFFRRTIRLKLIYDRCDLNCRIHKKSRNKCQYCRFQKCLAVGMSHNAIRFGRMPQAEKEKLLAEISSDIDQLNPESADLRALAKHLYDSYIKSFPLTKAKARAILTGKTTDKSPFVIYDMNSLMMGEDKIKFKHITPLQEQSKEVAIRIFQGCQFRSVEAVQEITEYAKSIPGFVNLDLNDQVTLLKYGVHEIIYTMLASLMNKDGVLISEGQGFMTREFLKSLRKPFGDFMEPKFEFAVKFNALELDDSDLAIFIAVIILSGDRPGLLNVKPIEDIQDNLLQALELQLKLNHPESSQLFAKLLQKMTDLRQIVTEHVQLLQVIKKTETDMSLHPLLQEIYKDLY
Sequence of Peroxisome proliferator-activated receptor gamma/Nuclear receptor coactivator 3 (Q9Y6Q9 whole entry, further chain): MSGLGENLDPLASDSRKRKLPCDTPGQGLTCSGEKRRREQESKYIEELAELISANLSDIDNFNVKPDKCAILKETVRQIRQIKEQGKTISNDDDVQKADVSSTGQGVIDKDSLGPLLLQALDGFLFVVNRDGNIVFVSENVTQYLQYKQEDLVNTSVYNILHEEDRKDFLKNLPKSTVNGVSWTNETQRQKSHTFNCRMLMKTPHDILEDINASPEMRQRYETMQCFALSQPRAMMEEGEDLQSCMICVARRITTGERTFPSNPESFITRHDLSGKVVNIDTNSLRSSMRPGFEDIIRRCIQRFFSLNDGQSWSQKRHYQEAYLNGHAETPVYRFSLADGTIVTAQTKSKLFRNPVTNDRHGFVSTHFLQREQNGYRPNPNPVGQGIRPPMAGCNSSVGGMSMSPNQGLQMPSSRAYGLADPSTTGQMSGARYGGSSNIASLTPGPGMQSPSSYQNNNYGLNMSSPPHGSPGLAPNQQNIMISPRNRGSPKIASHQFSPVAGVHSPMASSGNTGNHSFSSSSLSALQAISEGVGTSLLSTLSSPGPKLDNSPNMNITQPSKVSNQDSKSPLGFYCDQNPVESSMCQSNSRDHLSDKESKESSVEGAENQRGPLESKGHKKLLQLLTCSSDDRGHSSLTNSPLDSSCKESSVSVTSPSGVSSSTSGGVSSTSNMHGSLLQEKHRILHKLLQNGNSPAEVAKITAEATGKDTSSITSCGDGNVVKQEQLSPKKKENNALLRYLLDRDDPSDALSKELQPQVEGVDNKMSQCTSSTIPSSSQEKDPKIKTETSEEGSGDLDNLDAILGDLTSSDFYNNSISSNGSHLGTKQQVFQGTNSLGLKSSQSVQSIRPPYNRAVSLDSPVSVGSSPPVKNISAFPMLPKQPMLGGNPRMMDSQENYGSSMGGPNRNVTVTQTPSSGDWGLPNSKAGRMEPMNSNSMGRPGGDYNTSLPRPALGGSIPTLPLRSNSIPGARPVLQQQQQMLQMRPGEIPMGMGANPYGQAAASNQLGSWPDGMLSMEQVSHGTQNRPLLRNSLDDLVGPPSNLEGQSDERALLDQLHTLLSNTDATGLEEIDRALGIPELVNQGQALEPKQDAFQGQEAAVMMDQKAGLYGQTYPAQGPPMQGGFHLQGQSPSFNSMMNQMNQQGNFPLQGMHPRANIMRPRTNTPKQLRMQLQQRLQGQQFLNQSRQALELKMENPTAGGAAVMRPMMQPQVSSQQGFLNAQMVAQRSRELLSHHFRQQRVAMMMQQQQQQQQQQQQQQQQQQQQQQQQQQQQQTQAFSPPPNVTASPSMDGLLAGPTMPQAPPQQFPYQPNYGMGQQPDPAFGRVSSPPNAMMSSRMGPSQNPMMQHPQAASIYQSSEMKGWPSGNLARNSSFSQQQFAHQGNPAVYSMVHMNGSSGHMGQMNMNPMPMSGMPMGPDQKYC

[14] = biological target: Peroxisome proliferator-activated receptor gamma/Nuclear receptor coactivator 1 (Homo sapiens, UniProt P37231); type: functional;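 also: agonist potency as compounds enhance coactivator SRC-1 recruitment to PPARgamma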
[15] = biological target: Peroxisome proliferator-activated receptor gamma/Nuclear receptor coactivator 2 (Homo sapiens, UniProt P37231); type: functional;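 also: agonist potency for raising coactivator recruitment to the receptor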
[16] = loss of viability in HepG2 cells – cell-based, CellTiter-Glo, cherry-picked, cytotoxicity control for Shn3 inhibitor project, dose response (AID 624134); type: functional
[17] = non-specific 3'UTR reporter inhibition in Clone20-Shn3RL – cell-based, Renilla luciferase, cherry-picked, counter-screen for Shn3 inhibitor project, dose response (AID 624133); type: functional
[18] = reduction of Shn3 3'UTR-driven luciferase in osteoblasts – cell-based, Clone20 osteoblasts, firefly luciferase, cherry-picked, dose response (AID 624132); type: functional;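 also: firefly luciferase luminescence from reporter carrying the Shn3 3'UTR in osteoblasts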
[19] = biological target: Dual specificity tyrosine-phosphorylation-regulated kinase 1A (Rattus norvegicus, UniProt Q63470); type: biochemical, Homo sapiens
SUMO-activating enzyme = SUMO-activating enzyme (Homo sapiens, UniProt Q9UBT2); experiment: blockers of UBC9-mediated SUMO conjugation – biochemical, AlphaScreen, SUMOylation inhibitor project, confirmation (AID 2018); type: functional

Sequence of Cytochrome P450 3A4 (P08684 whole entry): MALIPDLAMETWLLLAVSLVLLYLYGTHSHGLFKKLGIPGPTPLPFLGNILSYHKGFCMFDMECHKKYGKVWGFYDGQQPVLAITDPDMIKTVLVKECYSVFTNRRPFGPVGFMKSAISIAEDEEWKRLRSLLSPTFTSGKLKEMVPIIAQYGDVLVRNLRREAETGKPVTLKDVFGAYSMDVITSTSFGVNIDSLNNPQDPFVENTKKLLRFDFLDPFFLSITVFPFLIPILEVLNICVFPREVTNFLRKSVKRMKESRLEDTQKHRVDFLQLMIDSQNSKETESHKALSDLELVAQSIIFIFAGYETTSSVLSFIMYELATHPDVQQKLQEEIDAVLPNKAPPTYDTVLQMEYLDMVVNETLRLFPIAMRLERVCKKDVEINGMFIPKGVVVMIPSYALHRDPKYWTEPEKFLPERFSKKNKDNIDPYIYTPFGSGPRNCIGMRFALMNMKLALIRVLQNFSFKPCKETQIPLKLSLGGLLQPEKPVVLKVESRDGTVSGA

Structure (SMILES): COC(C)C(O)(C(=O)OC1=CCN2CC[C@H](O)[C@H]12)C(C)C (stereo partly specified)
- AC50 (Cytochrome P450 3A4): 50.1 µM (inconclusive)

Structure (SMILES): CCN1C[C@@]2(C)CC[C@@H](OC)[C@@]34C2C(O)[C@@]2(OCO[C@]25CC(OC)C2C[C@@]3(O)C5C2O)C14 (stereo partly specified)
- AC50 (Cytochrome P450 3A4): 39.8 µM (inconclusive)

Structure (SMILES): Cc1c(NC(=O)c2nc[nH]n2)cccc1-c1nc2ccccc2s1
- IC50 [1]: 2.54 µM (active)
- IC50 [2]: 1.58 µM (active)

Structure (SMILES): CN(Cc1ccc(F)cc1)S(=O)(=O)c1nnc(NC(=O)c2ccccc2)s1
- IC50 [3]: 11.1 µM (active)
- IC50 (HEK293 [4]): > 20 µM (inactive)
- IC50 (Tumor necrosis factor): 15.1 µM (active)
- EC50 (HEK293 [5]): 3.08 µM (active)
- IC50 (HEK293 [6]): 16.7 µM (inactive)
- IC50 (HEK293 [7]): > 20 µM (inactive)
- IC50 (HEK293 [8]): > 20 µM (inactive)

Structure (SMILES): CCn1cc(CNC(=O)c2cc(COc3ccc(F)cc3F)on2)cn1
- IC50 [9]: 18.2 µM (active)

Structure (SMILES): Cc1cc(C)cc(-n2cccc2/C=C2/C(=N)N3C(=NC2=O)SN=C3S(C)(=O)=O)c1
- IC50 [10]: 37.6 µM (active)
- IC50 (Prothrombin): 74.6 µM (active)
- IC50 [11]: 81.6 µM (active)

Structure (SMILES): Fc1ccc(-c2nnc(CN3CCN(c4ncc(C(F)(F)F)cc4Cl)CC3)o2)cc1
- EC50 [12]: 5.31 µM (active)

Structure (SMILES): CCN1C(N(C)CCc2cccs2)=N[C@@H](c2ccccc2)C(C(=O)OC)=C1C
- IC50 [1]: 8.2 µM (active)
- IC50 [2]: 6.31 µM (active)

Structure (SMILES): Fc1ccc(C2CCNCC2COc2ccc3c(c2)OCO3)cc1 (stereo unspecified)
- EC50 [12]: 10.6 µM (active)

Structure (SMILES): CCCCC(CC)Cn1c2nc3ccccc3nc2c2c(=N)oc(C)nc21 (stereo unspecified)
- EC50 [13]: 84.3 µM (not active)
- EC50 [14]: > 79.4 µM (not active)
- EC50 [15]: > 79.4 µM (not active)

Structure (SMILES): Cc1ccc2cc3c(NS(=O)(=O)c4cccc5nonc45)nn(CC(C)C)c3nc2c1
- IC50 [9]: 13.8 µM (active)

Structure (SMILES): CCc1n(CC(O)COCC2CC=CCC2)c2ccccc2[n+]1C (stereo unspecified)
- IC50 [1]: 3.7 µM (active)
- IC50 [2]: 1.93 µM (active)

Structure (SMILES): COc1ccc(CNc2ncnc3sccc23)cc1OC
- IC50 [3]: 9.64 µM (active)
- IC50 (HEK293 [4]): 17.4 µM (active)
- AC50 [16]: 68.3 µM (active)
- IC50 (Tumor necrosis factor): 13 µM (active)
- EC50 (HEK293 [5]): 5.37 µM (active)
- IC50 (HEK293 [6]): > 20 µM (inactive)
- IC50 (HEK293 [7]): > 20 µM (inactive)
- AC50 [17]: 5.11 µM (active)
- IC50 (HEK293 [8]): > 20 µM (inactive)
- AC50 [18]: 2.34 µM (active)

Structure (SMILES): CSCCNC(C)=O
- EC50 [13]: > 79.4 µM (not active)
- EC50 [14]: > 79.4 µM (not active)
- EC50 [15]: > 79.4 µM (not active)

Structure (SMILES): CN1CCN(c2ccc(C(F)(F)F)cc2NC(=O)Nc2ccccc2)CC1
- EC50 [12]: 4.73 µM (active)

Structure (SMILES): CN1CCN(CC(=O)Nc2sc3c(c2C(=O)Nc2ccccc2)CCCC3)CC1
- IC50 [1]: 5.56 µM (active)
- IC50 [2]: 6.88 µM (active)

Structure (SMILES): CCC(=O)[C@]12O[C@@]3(C4C(=O)OCCC41)N(CC)C(C)=C(C(=O)OC)C(c1ccccc1)N3C2=O (stereo partly specified)
- AC50 (Cytochrome P450 3A4): 5.01 µM (inconclusive)

Structure (SMILES): COc1ccc2cc(-c3cccnc3)ncc2c1
- AC50 [19]: 6.39 µM (active)

Structure (SMILES): O=c1[nH]n(-c2ccccc2)c(=O)c2ccccc12
- EC50 [13]: > 79.4 µM (not active)
- EC50 [14]: > 79.4 µM (not active)
- EC50 [15]: > 79.4 µM (not active)

Structure (SMILES): COc1ccc(C(CNCC(=O)Nc2ccccc2F)N(C)C)cc1 (stereo unspecified)
- EC50 [12]: 0.133 µM (active)

Structure (SMILES): Cc1nc(CN(C)C(=O)c2cc(COc3ccc4ncccc4c3)on2)cs1
- IC50 [3]: > 20 µM (inactive)
- IC50 (HEK293 [4]): 7.67 µM (active)
- IC50 (Tumor necrosis factor): > 20 µM (inactive)
- EC50 (HEK293 [5]): 2.75 µM (active)
- IC50 (HEK293 [6]): 14.3 µM (inactive)
- IC50 (HEK293 [7]): > 20 µM (inactive)
- IC50 (HEK293 [8]): > 20 µM (inactive)

Structure (SMILES): CCCCNC(=O)c1ccc2c(OCC)n(CCCC)nc2c1
- IC50 [9]: 13.1 µM (active)

Structure (SMILES): COc1ccccc1NC(=O)c1sc2ncn(CC(=O)Nc3ccccc3)c(=O)c2c1C
- IC50 (SUMO-activating enzyme): 20.4 µM (active)
